Here are results for twelve molecules from patent publication US20250114460A1, “NOVEL PLK1 DEGRADATION INDUCING COMPOUND” (UPPTHERA, INC., priority 2021, published 2025).

Holding throughout (format): cell-based
In one assay the test system is MRC-5 cell line. The assay is described as follows: Cell viability assay for MRC-5 cell line (EZ-Cytox). The conditions noted are these: Homo sapiens, MRC5, 120 h; MRC-5 normal cell line, 5 days, 10000 nM to 1.52 nM; N.D. = no cytotoxicity until 10 μM; read-out: Activity: IC50 value of Exemplary Compound to MRC-5 cell line. On the procedure: 4. Cell Viability Assay for MRC-5 Cell Line
(1) Culture of MRC-5 Cell Line
Passage of cultured cells was maintained within P15.
(2) Treatment of Compounds of the Present Invention
Then, it was cultured in 37° C.
(3) Cytotoxicity Experiment
CO2 incubator for 4 hours.

In the next assay the test system is NCI-H526 cell line. The experiment in a line: Cell viability assay for H526 cell (EZ-Cytox). The conditions noted are these: Homo sapiens, NCI-H526, 120 h; H526 cells, 5 days, 3000 nM to 0.46 nM. An outline of the steps: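 NCI-H526 cells were exposed to compound in CO2 incubator culture for 5 days. Viability was read by EZ-Cytox absorbance at 450 nm after 3 min shaking, giving IC50 values.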

The target of the next assay is T1, PLK1 (Homo sapiens, UniProt P53350).
T1 construct: endogenous in cells; host or cells: HeLa LgBit (Plk1-HiBit KI): HeLa stably expressing LgBit, with a CRISPR/Cas9 knock-in of HiBit at the endogenous PLK1 locus
T1 sequence (P53350 whole entry): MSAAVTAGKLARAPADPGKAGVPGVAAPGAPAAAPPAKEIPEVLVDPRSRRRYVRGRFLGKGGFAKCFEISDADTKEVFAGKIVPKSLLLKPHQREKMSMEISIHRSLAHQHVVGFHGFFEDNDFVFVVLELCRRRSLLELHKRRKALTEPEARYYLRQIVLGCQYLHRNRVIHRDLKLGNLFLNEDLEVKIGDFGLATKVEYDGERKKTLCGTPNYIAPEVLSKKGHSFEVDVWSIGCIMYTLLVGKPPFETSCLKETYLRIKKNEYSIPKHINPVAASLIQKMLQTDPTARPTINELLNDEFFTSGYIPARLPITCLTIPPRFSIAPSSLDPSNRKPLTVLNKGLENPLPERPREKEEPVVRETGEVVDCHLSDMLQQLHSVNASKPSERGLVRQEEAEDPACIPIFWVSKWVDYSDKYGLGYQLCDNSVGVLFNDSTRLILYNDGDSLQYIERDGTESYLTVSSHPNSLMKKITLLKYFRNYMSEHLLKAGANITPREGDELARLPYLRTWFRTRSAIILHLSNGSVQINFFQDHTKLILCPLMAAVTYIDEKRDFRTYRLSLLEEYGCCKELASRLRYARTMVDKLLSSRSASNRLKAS
The experiment in a line: Luciferase assay for PLK1 in HeLa LgBit (Plk1-HiBit KI) cell line. The conditions noted are these: 300 nM compound, luminescence after 9 hours. Put shortly: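 HeLa cells stably expressing LgBit, with HiBit knocked in at the C-terminus of endogenous Plk1, released from a 24 h 2 mM thymidine block and grown 18 h. Endurazine added, then compound at 300 nM; luminescence tracked in real time, expressed as ratio to DMSO.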
(In general: HiBiT is a short tag that completes a luciferase, so light tracks the accessible tagged protein.)

Molecules are shown by their SMILES.

Turning to `COc1cc(C(=O)NC2CCN(C(=O)CCN3CCN(c4cccc5c4C(=O)N(C4CCC(=O)NC4=O)C5=O)CC3)CC2)ccc1Nc1ncc2c(n1)N(C1CCCC1)CC(C)(C)C(=O)N2C` (stereo not drawn) [Compound 121, 4-((9-cyclopentyl-5,7,7-trimethyl-6-oxo-6,7,8,9-tetrahydro-5H-pyrimido[4,5-b][1,4]diazepin-2-yl)amino)-N-(1-(3-(4-(2-(2,6-dioxopiperidin-3-yl)-1,3-dioxoisoindolin-4-yl)piperazin-1-yl)propanoyl)piperidin-4-yl)-3-methoxybenzamide], the half-inhibitory concentration (IC50) in the assay on MRC-5 cell line is greater than 10 µM; in the assay on NCI-H526 cell line, less than 0.2 µM. The “Activity: ratio of the luminescense value of each Exemplary Compound treatment group to DMSO treatment group” value (from here on “Activity: ratio”) at PLK1 was “++ (++<0.6)”.
The like results for `COc1cc(C(=O)NC2CCCN(C(=O)CCN3CCN(c4cccc5c4C(=O)N(C4CCC(=O)NC4=O)C5=O)CC3)C2)ccc1Nc1ncc2c(n1)N(C1CCCC1)CC(F)(F)C(=O)N2C` (stereo not drawn) [Compound 123, 4-((9-cyclopentyl-7,7-difluoro-5-methyl-6-oxo-6,7,8,9-tetrahydro-5H-pyrimido[4,5-b][1,4]diazepin-2-yl)amino)-N-(1-(3-(4-(2-(2,6-dioxopiperidin-3-yl)-1,3-dioxoisoindolin-4-yl)piperazin-1-yl)propanoyl)piperidin-3-yl)-3-methoxybenzamide] were, in that order, greater than 10 µM, less than 0.1 µM and “++ (++<0.6)”.
On the same counts, the results for `COc1cc(C(=O)NN2CCC(CN3CCN(c4cccc5c4C(=O)N(C4CCC(=O)NC4=O)C5=O)CC3)CC2)ccc1Nc1ncc2c(n1)N(C1CCCC1)CC(F)(F)C(=O)N2C` (stereo not drawn) [Compound 124, 4-((9-cyclopentyl-7,7-difluoro-5-methyl-6-oxo-6,7,8,9-tetrahydro-5H-pyrimido[4,5-b][1,4]diazepin-2-yl)amino)-N-(4-((4-(2-(2,6-dioxopiperidin-3-yl)-1,3-dioxoisoindolin-4-yl)piperazin-1-yl)methyl)piperidin-1-yl)-3-methoxybenzamide] are greater than 10 µM, less than 0.03 µM and “++ (++<0.6)”.
For `COc1cc(C(=O)N[C@H]2CC[C@@H](N(C)CCN3CCN(c4cccc5c4C(=O)N(C4CCC(=O)NC4=O)C5=O)CC3)CC2)ccc1Nc1ncc2c(n1)N(C1CCCC1)CC(F)(F)C(=O)N2C` (stereo partly drawn) [Compound 128, 4-((9-cyclopentyl-7,7-difluoro-5-methyl-6-oxo-6,7,8,9-tetrahydro-5H-pyrimido[4,5-b][1,4]diazepin-2-yl)amino)-N-((1s,4s)-4-((2-(4-(2-(2,6-dioxopiperidin-3-yl)-1,3-dioxoisoindolin-4-yl)piperazin-1-yl)ethyl)(methyl)amino)cyclohexyl)-3-methoxybenzamide], the concentration for half-maximal inhibition (IC50) in the assay with MRC-5 cell line is 18.8 µM; with NCI-H526 cell line it was less than 0.05 µM. Further, the “Activity: ratio” value on PLK1 is given as “++ (++<0.6)”.
On the same counts, the results for `COc1cc(C(=O)N[C@H]2CC[C@H](N(C)CCN3CCN(c4cccc5c4C(=O)N(C4CCC(=O)NC4=O)C5=O)CC3)CC2)ccc1Nc1ncc2c(n1)N(C1CCCC1)CC(F)(F)C(=O)N2C` (stereo partly drawn) [Compound 129, 4-((9-cyclopentyl-7,7-difluoro-5-methyl-6-oxo-6,7,8,9-tetrahydro-5H-pyrimido[4,5-b][1,4]diazepin-2-yl)amino)-N-((1r,4r)-4-((2-(4-(2-(2,6-dioxopiperidin-3-yl)-1,3-dioxoisoindolin-4-yl)piperazin-1-yl)ethyl)(methyl)amino)cyclohexyl)-3-methoxybenzamide] are 17.3 µM, less than 0.03 µM and “+++ (+++: <0.3)”.
The like results for `COc1cc(C(=O)NC2CCN(C(=O)CCN3CCN(c4ccc5c(c4)CN(C4CCC(=O)NC4=O)C5=O)CC3)CC2)ccc1Nc1ncc2c(n1)N(C(C)C)CC(F)(F)C(=O)N2C` (stereo not drawn) [Compound 130, 4-((7,7-difluoro-9-isopropyl-5-methyl-6-oxo-6,7,8,9-tetrahydro-5H-pyrimido[4,5-b][1,4]diazepin-2-yl)amino)-N-(1-(3-(4-(2-(2,6-dioxopiperidin-3-yl)-1-oxoisoindolin-5-yl)piperazin-1-yl)propanoyl)piperidin-4-yl)-3-methoxybenzamide] were, in that order, greater than 10 µM, less than 0.03 µM and “++ (++<0.6)”.
Take `COc1cc(C(=O)N[C@H]2CC[C@H](N3CCN(c4cccc5c4C(=O)N(C4CCC(=O)NC4=O)C5=O)CC3)CC2)ccc1Nc1ncc2c(n1)N(C1CCCC1)CC(F)(F)C(=O)N2C` (stereo partly drawn) [Compound 131, 4-((9-cyclopentyl-7,7-difluoro-5-methyl-6-oxo-6,7,8,9-tetrahydro-5H-pyrimido[4,5-b][1,4]diazepin-2-yl)amino)-N-((1r,4r)-4-(4-(2-(2,6-dioxopiperidin-3-yl)-1,3-dioxoisoindolin-4-yl)piperazin-1-yl)cyclohexyl)-3-methoxybenzamide]: the 50% inhibitory concentration (IC50) is greater than 10 µM in the assay with MRC-5 cell line and less than 0.05 µM in the assay on NCI-H526 cell line. The “Activity: ratio” value on PLK1 is “++ (++<0.6)”.
As for `COc1cc(C(=O)NC2CCN(C(=O)CCN3CCN(c4cccc5c4CN(C4CCC(=O)NC4=O)C5=O)CC3)CC2)ccc1Nc1ncc2c(n1)N(C(C)C)CC(F)(F)C(=O)N2C` (stereo not drawn) [Compound 133, 4-((7,7-difluoro-9-isopropyl-5-methyl-6-oxo-6,7,8,9-tetrahydro-5H-pyrimido[4,5-b][1,4]diazepin-2-yl)amino)-N-(1-(3-(4-(2-(2,6-dioxopiperidin-3-yl)-1-oxoisoindolin-4-yl)piperazin-1-yl)propanoyl)piperidin-4-yl)-3-methoxybenzamide], the IC50 in the assay on MRC-5 cell line was greater than 10 µM; in the assay on NCI-H526 cell line, less than 0.05 µM. Besides, the “Activity: ratio” value on PLK1 is reported as “++ (++<0.6)”.
On the same counts, the results for `COc1cc(C(=O)NC2CC3(CCN(CC4CCN(c5cccc6c5C(=O)N(C5CCC(=O)NC5=O)C6=O)CC4)CC3)C2)ccc1Nc1ncc2c(n1)N(C1CCCC1)CC(F)(F)C(=O)N2C` (stereo not drawn) [Compound 136, 4-((9-cyclopentyl-7,7-difluoro-5-methyl-6-oxo-6,7,8,9-tetrahydro-5H-pyrimido[4,5-b][1,4]diazepin-2-yl)amino)-N-(7-((1-(2-(2,6-dioxopiperidin-3-yl)-1,3-dioxoisoindolin-4-yl)piperidin-4-yl)methyl)-7-azaspiro[3.5]nonan-2-yl)-3-methoxybenzamide] are 6.52 µM, less than 0.03 µM and “+++ (+++: <0.3)”.
On the same counts, the results for `COc1cc(C(=O)NC2CC3(CCN(CC4CCN(c5ccc6c(c5)C(=O)N(C5CCC(=O)NC5=O)C6=O)CC4)CC3)C2)ccc1Nc1ncc2c(n1)N(C1CCCC1)CC(F)(F)C(=O)N2C` (stereo not drawn) [Compound 137, 4-((9-cyclopentyl-7,7-difluoro-5-methyl-6-oxo-6,7,8,9-tetrahydro-5H-pyrimido[4,5-b][1,4]diazepin-2-yl)amino)-N-(7-((1-(2-(2,6-dioxopiperidin-3-yl)-1,3-dioxoisoindolin-5-yl)piperidin-4-yl)methyl)-7-azaspiro[3.5]nonan-2-yl)-3-methoxybenzamide] are 16.9 µM, less than 0.03 µM and “++ (++<0.6)”.
As for `COc1cc(C(=O)NC2CN(CC3CCN(c4cccc5c4C(=O)N(C4CCC(=O)NC4=O)C5=O)CC3)C2)ccc1Nc1ncc2c(n1)N(C1CCCC1)CC(F)(F)C(=O)N2C` (stereo not drawn) [Compound 138, 4-((9-cyclopentyl-7,7-difluoro-5-methyl-6-oxo-6,7,8,9-tetrahydro-5H-pyrimido[4,5-b][1,4]diazepin-2-yl)amino)-N-(1-((1-(2-(2,6-dioxopiperidin-3-yl)-1,3-dioxoisoindolin-4-yl)piperidin-4-yl)methyl)azetidin-3-yl)-3-methoxybenzamide], the IC50 was greater than 10 µM with MRC-5 cell line and less than 0.05 µM with NCI-H526 cell line. In addition, the “Activity: ratio” value on PLK1 is reported as “++ (++<0.6)”.
In the case of `COc1cc(C(=O)NC2CN(CC3CCN(c4ccc5c(c4)C(=O)N(C4CCC(=O)NC4=O)C5=O)CC3)C2)ccc1Nc1ncc2c(n1)N(C1CCCC1)CC(F)(F)C(=O)N2C` (stereo not drawn) [Compound 139, 4-((9-cyclopentyl-7,7-difluoro-5-methyl-6-oxo-6,7,8,9-tetrahydro-5H-pyrimido[4,5-b][1,4]diazepin-2-yl)amino)-N-(1-((1-(2-(2,6-dioxopiperidin-3-yl)-1,3-dioxoisoindolin-5-yl)piperidin-4-yl)methyl)azetidin-3-yl)-3-methoxybenzamide], the half-inhibitory concentration (IC50) was greater than 10 µM with MRC-5 cell line and less than 0.05 µM in the assay on NCI-H526 cell line. In addition, at PLK1, the “Activity: ratio” value is “++ (++<0.6)”.

As a reminder, the IC50 is the concentration that inhibits the measured activity by half.
